Tests used:
[1] = test system: latent HIV in 89mASG- and R7GEmC-infected single-positive Jurkat T cells; test: Reactivation of latent HIV in sorted single-positive (latent) Jurkat T cells, FACS; type: cell-based, HIV-1; conditions: for reactivation activity (percent population in the productive gate): 89mASG and R7GEmC single-positive latent populations, 30, 10 and 3 μM; for expression of HIV promoter-dependent reporter: 89mASG and R7GEmC latent Jurkat T cells, 10 ng/ml TNFα, 5 μM prostratin or 2.5 μM SAHA alone
[2] = test system: latent HIV in sorted GFP-only 89mASG-infected Jurkat cells; test: High-throughput imaging screen for latent HIV reactivation (Tocriscreen library); type: cell-based, HIV-1; conditions: 24 hr; for red signal (mApple, reactivated virus) versus negative controls: positive control wells, 10 ng/ml TNFα, 5 μM prostratin or 2.5 μM SAHA and combinations; for reactivation of latent HIV in the screen: 30 μM, total red area higher than median+2 SD of negative control wells
From the text: (§1) Sorted 89mASG-infected, GFP-only-positive Jurkat cells were used to test the Tocriscreen drug library for latent HIV reactivation (see Methods). (a) Dot plot showing quantification of total blue area (Hoechst 33342 signal, total cell) against total red area (mApple signal, reactivated HIV). Red dots indicate the position of untreated wells (Negative controls); the shaded area indicates the median±2SD of the red/blue area ratio for negative control wells. Green dots indicate positive control wells, treated with 10 ng/ml TNFα, 5 μM prostratin or 2.5 μM SAHA and their combinations. […] Representative FACS plots of sorted single-positive Jurkat T cells for both viruses. The productive gate contains the reactivated cells. […] (c,d) Histogram plot of percent population in the productive gate (grey) for each treatment and percentage of cells in the live gate (light blue) for sorted single-positive Jurkat T cells for 89mASG (c) and R7GEmC (d) reporters. Data shown as mean±SD for three different treatments. For each compound, a grey triangle between the histograms indicates decreasing drug concentration (30, 10 and 3 μM). […] (e) FACS analysis of drug treatments combined with 0.5 μM SAHA, 0.5 μM prostratin and 0.5 ng/ml TNFα. Representative FACS plots of sorted GFP-only-positive Jurkat T cells for 89mASG treated with DMSO (control), SAHA (0.5 μM) alone or with terreic acid (10 μM) and dilazep (30 μM). (f) Histogram plot of percent population of the sorted cells in the productive gate for each treatment at indicated concentrations (μM).

[3] = test system: HIV RNA expression; conditions: recent study; cited from earlier work
[4] = test system: latent provirus in mCherry-only R7GEmC-infected primary CD4+ T cells; test: Reactivation of sorted mCherry-only (latent) primary CD4+ T cells infected with R7GEmC; type: cell-based, HIV-1; conditions: for response of mCherry-only positive cells to treatment: three pooled donors, 1 μM prostratin, 1 μM SAHA
Description: HEK293T, Jurkat, A301 and SupT1 cell lines were obtained from ATCC. Suspension cells were cultured in RPMI 1640 supplemented with 10% FBS, 100 U/ml penicillin, […] streptomycin and 2 mM L-glutamine (PSG) (37° C., 5% CO2). Peripheral blood from healthy human donors was obtained from the Stanford Blood Center and processed the day of collection. CD4^+ T cells were isolated with RosetteSep Human CD4^+ T-Cell Enrichment Cocktail (Stem Cell Technologies) and cultured in human cell medium (HCM, RPMI, 10% human AB pooled serum, PSG). Resting CD4^+ T cells were activated in U-bottom 96-well TC plates with 25 μl human anti-CD3 and anti-CD28-coated dynabeads/10^6 cells (48 h). Dynabeads were removed by magnetic separation and cells seeded in HCM with 30 IU/ml rhIL-2. Cell lines and activated CD4^+ cells were infected by spinoculation (Lassen et al., PLoS One. 2012; 7(1):e30176, which is hereby incorporated by reference in its entirety) with a virus amount equivalent to 20 ng p24 or as indicated. Viral infection was assessed by fluorescence activated cell sorting (FACS) analysis after 72 h. At 5 days post-infection, cells were sorted to separate negative, single- or double-positive cells. Sorted cell lines were treated after re-expansion for 5-15 days. Cells were seeded in 96-well U plates and treated for 24 h before analysis. […]
The extent to which mCherry-only-positive populations could be reactivated by further stimulation was next evaluated. […]
(a) FACS analysis of activated CD4^+ T cells from two human donors (#1, #2) infected with R7GEmC at indicated virus amounts. (b) Fluorescence microscopy image of infected CD4^+ T cells showing mCherry-positive (latent, red) and GFP-positive (active, green) cells. (c) qPCR quantification of proviral DNA in the sorted populations, using primer-probe combinations for the HIV-1 gag gene and the RNAseP gene for normalization. […] (d) Western blot quantification of HIV gag and cell α-actin in sorted CD4^+ T cell populations from pooled donors. […]

[5] = test system: latent HIV in sorted latent-cell populations (GFP-only-positive 89mASG Jurkat T cells); test: Co-treatment with low levels of SAHA, prostratin or TNFα, FACS; type: cell-based, HIV-1; conditions: 24 h; for effect on HIV latency in combination with SAHA: 10 μM with low SAHA (0.5 μM); for interaction with prostratin: with low prostratin (0.5 μM)
From the text: Thus, it might be of interest to identify compounds that can potentiate HIV reactivation by SAHA or prostratin or TNFα.
as §1

[6] = test system: R7GEmC infection of activated CD4+ T cells; test: Infection of activated CD4+ T cells with R7GEmC in the presence of integrase inhibitor (pre-integration latency); type: cell-based, HIV-1; conditions: 30 μM Raltegravir; after 3 days
From the text: HIV latency in vivo is reported to result, in part, from pre-integration latency, whereby unintegrated proviral DNA (after full retrotranscription) is maintained in a stable cytoplasmic form in a quiescent cell, and can respond to cell activation by de novo integration and productive infection. To rule out pre-integration latency, activated CD4^+ T cells were infected with R7GEmC in the presence of the HIV integrase inhibitor raltegravir (FIG. 6A).
(a) FACS analysis of activated CD4^+ T cells from two human donors (#1, #2) infected with R7GEMC alone or with 30 μM Raltegravir (RALTE 30). (b) Analysis of sorted CD4^+ T-cell populations from donors 1 and 2, after 48 h with anti-CD3/CD28-coated Dynabeads (αCD3/28), alone, with 30 μM Raltegravir, or untreated (CTR).

N#C/C(=C\c1ccc(O)c(O)c1)C(=O)NCCCc1ccccc1 [AG555, α-Cyano-(3,4-dihydroxy)-N-(3-phenylpropyl)cinnamide]
reactivation activity (percent population in the productive gate) [1]: slight but significant reactivation activity

O=C1C(SCCO)=C(SCCO)C(=O)c2ccccc21 [NSC 95397]
reactivation activity (percent population in the productive gate) [1]: clear artifacts or false positives

O=C(CCCCCCC(=O)Nc1ccccc1)NO [SAHA, suberoylanilide hydroxamic acid]
expression of HIV promoter-dependent reporter [1]: increased expression of HIV promoter-dependent reporter | red signal (mApple, reactivated virus) versus negative controls [2]: notably higher red signal | reactivation of HIV RNA expression in patients [3]: can reactivate HIV RNA expression in a subset of patients | response of mCherry-only positive cells to treatment [4]: A subset of less-bright mCherry-only positive cells also responded

CN1CCc2cccc3c2[C@H]1Cc1ccc(O)c(O)c1-3 [apomorphin, apomorphine]
reactivation activity (percent population in the productive gate) [1]: distinct effects in the two HIV clones

COc1cc(C(=O)OCCCN2CCCN(CCCOC(=O)c3cc(OC)c(OC)c(OC)c3)CC2)cc(OC)c1OC [dilazep]
reactivation activity (percent population in the productive gate) [1]: slight but significant reactivation activity | effect on HIV latency in combination with SAHA [5]: strongly enhanced the effect of low SAHA concentrations | interaction with prostratin [5]: synergistic with prostratin

O=c1c(-c2ccc(O)cc2)coc2cc(O)cc(O)c12 [genistein]
reactivation of latent HIV in the screen [2]: reactivated latent HIV

CC(=O)O[C@@]12C[C@@H](C)[C@@]3(O)[C@@H](C=C(CO)C[C@]4(O)C(=O)C(C)=C[C@@H]34)[C@@H]1C2(C)C [prostratin, (1aR,1bS,4aR,7aS,7bR,8R,9aS)-4a,7b-dihydroxy-3-(hydroxymethyl)-1,1,6,8-tetramethyl-5-oxo-1,1a,1b,4,4a,5,7a,7b,8,9-decahydro-9aH-cyclopropa[3,4]benzo[1,2-e]azulen-9a-yl]
expression of HIV promoter-dependent reporter [1]: increased expression of HIV promoter-dependent reporter | red signal (mApple, reactivated virus) versus negative controls [2]: notably higher red signal | response of mCherry-only positive cells to treatment [4]: A subset of less-bright mCherry-only positive cells also responded

Cc1nnc(C(=O)NC(C)(C)c2nc(C(=O)NCc3ccc(F)cc3)c(O)c(=O)n2C)o1 [raltegravir]
integration-independent expression of the fluorescent proteins [6]: no integration-independent expression of the fluorescent proteins | effect on viral reactivation in the mCherry-only-positive population ([4]; 30 μM Raltegravir with anti-CD3/CD28-coated Dynabeads, 48 h): did not reduce viral reactivation

Oc1ccc(C=Cc2cc(O)cc(O)c2)cc1 [resveratrol]
reactivation of latent HIV in the screen [2]: reactivated latent HIV

CC1=C(O)C(=O)[C@@H]2O[C@@H]2C1=O [terreic acid, (−)-terreic acid]
reactivation activity (percent population in the productive gate) [1]: slight but significant reactivation activity | effect on HIV latency in combination with SAHA [5]: strongly enhanced the effect of low SAHA concentrations | interaction with TNFα ([5]; with low TNFα (0.5 ng/ml)): synergistic interaction in most combinations except terreic acid | interaction with prostratin [5]: synergistic with prostratin

TNF-α
expression of HIV promoter-dependent reporter [1]: increased expression of HIV promoter-dependent reporter | red signal (mApple, reactivated virus) versus negative controls [2]: notably higher red signal

— US10106818B2, “Dual-color HIV reporter system for the detection of latently-infected cells” (priority 2013, dated 2018)
